Results from US9603859B2, “Methods and products for increasing the rate of healing of tissue wounds” (BRIGHAM YOUNG UNIVERSITY, priority 2011, dated 2017).

Key:
[1] = test system: primary human MSC cells; assay: Wound healing array q-PCR gene expression in mesenchymal stem cells; format: cell-based; details: 8 hours treatment
From the text: To determine the role of synthetic Ceragenins CSA-13, 44 and 90 in wound healing using mesenchymal stem cells (MSC), targeted mRNA panels from SABiosciences, and primary cells from Lonza were selected. Cells were purchased from Lonza.com and used fresh for each test using recommended media and culture conditions. After treatment, mRNA was isolated using Qiagen RNeasy Mini Kit®, and quantified using a NanoDrop 2000® by UV at 260 nm and 260/280 ratio for purity. cDNA was made using a First Strand Kit® from SABiosciences and processed for real time PCR using a kit from the same company for selected analysis of wound healing pathways. Results from q-PCR were uploaded to the SABiosciences site and to Ingenuity.com web site for analysis and pathway mapping. SABiosciences wound healing array plates (Cat# PAHS-121) and innate/acquired immune response plates (PAHS-052) were used. These arrays are fully validated when used as recommended. On day 1, primary human MSC cells were plated at 200,000 cells/well using 6-well plates with 3 ml of recommended media—hMSC Basal Medium+BulletKit (50 ml Growth Supplement, 10 ml L-Glutamine and 0.5 ml Gentamicin Sulfate Amphotercin-B) for 24 hours. Only early passages of cells were used, and never from frozen stock. On day 2, cells were treated with compounds dissolved in DMSO diluted 1:1000 or more to avoid effects of the solvent. Final testing concentration for CSA-13 was 5.0 μM. Treatment lasted 8 hours, and was followed by RNA isolation using QIAGEN RNeasy Mini Kit® (74104). RNA was measured at 260/280 nm using a NanoDrop 2000® and normalized to 2.4 ng per well, cDNA preparation was done using QIAGEN First Strand kit 330401. q-PCR was run as absolute quantification and threshold set at 0.1 units. Dendritic cells were plated at 500,000 cells/well using 24-well plate with 500 ul of Lonza LGM-3 Complete Growth Medium with and without compound. Treatment lasted 8 hours, and was followed by RNA isolation using QIAGEN RNeasy Mini Kit® (74104). RNA was measured at 260/280 nm using NanoDrop2000® and normalized to 2.4 ng per well, cDNA preparation was done using QIAGEN First Strand kit 330401. PCR was run as absolute quantification and threshold set at 0.1 units. For the wound healing array, strong upregulation of growth factors such as HB-EGF and cell migration factors such as MMP1 and CXCL2 were found, indicating a clear potential for CSA as a modulator of wound healing. Additional gene expression data is provided in Tables 1-3 for CSA-13, 44, and 90, respectively.

[2] = test system: Mixed-species biofilms of S. aureus and P. aeruginosa; assay: Mixed-species biofilm susceptibility, live/dead staining; format: cell-based; details: biofilms grown in collagen-coated plates for 24 hours
[3] = test system: chronic non-healing oral cutaneous fistula; assay: Treatment of chronic non-healing oral cutaneous fistula in a horse; format: in vivo
From the text: A horse with a chronic non-healing oral cutaneous fistula was first treated with two prior art treatments with no success. The first treatment was with an aqueous spray of Vetericyn (0.007% hypochlorite) for a period of 7 days. […]

[4] = test system: torn right front shoulder wound; assay: Treatment of torn right front shoulder wound in a horse; format: in vivo; details: 0.04% solution in water sprayed twice a day
Protocol: This wound occurs commonly in horses and usually takes 3 to 6 months to heal. Typically this wound will result in a significant loss of muscle in the region. This wound was treated twice a day with a 0.04% solution of CSA-44 in water. The tissue treatment composition was applied by spraying sufficient composition to wet the entire surface of the wound.

[5] = test system: laceration to left hind cannon region; assay: Treatment of laceration to left hind cannon region of a broodmare; format: in vivo; details: horse; 0.04% solution in water twice daily; no wrap
Protocol: A reining broodmare in Texas was involved in an accident resulting in a laceration to her left hind cannon region. The wound was 3 inches in length and 2 inches wide. The laceration extended all the way to the cannon bone, exposing the periosteum. This wound was also treated with a 0.04% solution of CSA-44 in water twice daily. No wrap was applied (i.e., no immobilization). The wound closed in 11 days with normal hair growth at 30 days. This type of wound would usually require aggressive wraps for 3 months with the possibility of other procedures being necessary for the excessive granulation tissue that commonly develops.

[6] = test system: scratches (fungal infection of the lower extremities with secondary bacterial infection); assay: Treatment of extreme case of scratches in a horse; format: in vivo
From the text: A horse with an extreme case of scratches was successfully healed using CSA. Scratches is a fungal infection of the lower extremities in horses. This infection usually results in not only a fungal but also a secondary bacterial infection. In this case, the horse developed severe and debilitating granulation tissue of the ankle resulting in poor mobility due to cracking and bleeding. […] The chronic infection persisted for over two years despite the multiple attempts to treat with an antimicrobial. Due to the debilitating wound the horse was slated for slaughter. […] Normal hair growth and tissue was present in 4 weeks.

[7] = test system: fungal infection of the skin (summer itch); assay: Treatment of fungal infection of the skin (summer itch) in a show mare; format: in vivo; details: horse; 0.04% solution in water twice daily
From the text: A show mare developed an uncontrollable fungal infection of the skin. This malady is commonly referred to as summer itch. A 0.04% solution of CSA-44 in water was used twice daily for 3 weeks resulting in complete regrowth of normal skin and hair. Normal treatment time periods for this problem usually range from 3 to 4 months.

CCCCCN(CCCCC)CCC[C@@H](C)[C@H]1CC[C@H]2[C@@H]3[C@H](OCCCN)C[C@@H]4C[C@H](OCCCN)CC[C@]4(C)[C@H]3C[C@H](OCCCN)[C@]12C [CSA-90]
Fold Regulation ACTA2 [1]: −2.5014 | Fold Regulation ACTB [1]: −2.0745 | Fold Regulation CCL2 [1]: −1.5793 | Fold Regulation COL4A3 [1]: −1.6195 | Fold Regulation CTGF [1]: −15.7171 | Fold Regulation CTSK [1]: 1.5366 | Fold Regulation CTSL2 [1]: 1.6306 | Fold Regulation EGFR [1]: 1.6212 | Fold Regulation FGF7 [1]: 5.1689 | Fold Regulation HGF [1]: 2.3334 | Fold Regulation IFNG [1]: 1.839 | Fold Regulation IGF1 [1]: 2.2724 | Fold Regulation ITGA3 [1]: −1.5127 | Fold Regulation ITGB6 [1]: 1.9381 | Fold Regulation MMP9 [1]: 2.5652 | Fold Regulation SERPINE1 [1]: −3.7307 | Fold Regulation TGFBR3 [1]: −1.5938 | Fold Regulation TIMP1 [1]: 1.8212 | Fold Regulation WISP1 [1]: −2.3543 | Fold Regulation ANGPT1 ([1]; CSA-13 at 5.0 μM): −1.915 | Fold Regulation CCL7 ([1]; CSA-13 at 5.0 μM): 2.2874 | Fold Regulation CXCL1 ([1]; CSA-13 at 5.0 μM): 3.1083 | Fold Regulation CXCL2 ([1]; CSA-13 at 5.0 μM): 36.5878 | Fold Regulation F13A1 ([1]; CSA-13 at 5.0 μM): 2.1032 | Fold Regulation FGF10 ([1]; CSA-13 at 5.0 μM): 1.9842 | Fold Regulation HBEGF ([1]; CSA-13 at 5.0 μM): 3.5988 | Fold Regulation IL2 ([1]; CSA-13 at 5.0 μM): 1.8522 | Fold Regulation IL6 ([1]; CSA-13 at 5.0 μM): 7.2299 | Fold Regulation IL10 ([1]; CSA-13 at 5.0 μM): −1.7382 | Fold Regulation ITGA2 ([1]; CSA-13 at 5.0 μM): 14.3637 | Fold Regulation ITGB3 ([1]; CSA-13 at 5.0 μM): −1.538 | Fold Regulation MMP1 ([1]; CSA-13 at 5.0 μM): 45.3753 | Fold Regulation PLAT ([1]; CSA-13 at 5.0 μM): −2.14 | Fold Regulation PLAUR ([1]; CSA-13 at 5.0 μM): 1.9924 | Fold Regulation PTGS2 ([1]; CSA-13 at 5.0 μM): 66.6189 | Fold Regulation VEGFA ([1]; CSA-13 at 5.0 μM): 3.3257

Dermaseptin S1
anti-biofilm activity [2]: increased in anti-biofilm activity when shortened to the first 15 amino acids

CCCCCCCCOC(=O)CC[C@@H](C)[C@H]1CC[C@H]2[C@@H]3[C@H](OC(=O)CCN)C[C@@H]4C[C@H](OC(=O)CCN)CC[C@]4(C)[C@H]3C[C@H](OC(=O)CCN)[C@]12C [CSA-44]
time to closure of the fistula and healthy tissue ([3]; 0.04% CSA-44 in water sprayed once daily): 7 days | outcome of wound treatment ([3]; Vetericyn (0.007% hypochlorite) aqueous spray 7 days, Furacin Salve daily 5 days, 0.04% CSA-44 in water sprayed once daily 7 days): successfully treated | muscle loss after healing [4]: without any apparent muscle loss | time until wound closed and completely healed ([4]; wound 4 x 6 inches, 3 inches deep): 28 days | time of normal hair growth [5]: 30 days | time until wound closed [5]: 11 days | time until normal hair growth and tissue present ([6]; 0.04% in water sprayed twice daily): 4 weeks | outcome of wound treatment ([6]; CSA-44 0.04% in water sprayed twice daily for four weeks, comparators before CSA): successfully treated | treatment time to complete regrowth of normal skin and hair [7]: 3 weeks | Fold Regulation ACTA2 [1]: −1.9377 | Fold Regulation ACTB [1]: −1.7981 | Fold Regulation CCL2 [1]: −3.1925 | Fold Regulation CDH1 [1]: −2.7158 | Fold Regulation COL1A2 [1]: 1.5483 | Fold Regulation COL3A1 [1]: 1.7385 | Fold Regulation COL4A3 [1]: −2.4845 | Fold Regulation CTGF [1]: −24.5295 | Fold Regulation CTSK [1]: 1.6388 | Fold Regulation CTSL2 [1]: 1.7924 | Fold Regulation EGFR [1]: 1.5364 | Fold Regulation FGF7 [1]: 4.84 | Fold Regulation HGF [1]: 3.1098 | Fold Regulation IGF1 [1]: 1.6877 | Fold Regulation ITGB6 [1]: 1.6323 | Fold Regulation MMP9 [1]: 1.5543 | Fold Regulation SERPINE1 [1]: −2.9618 | Fold Regulation TGFBR3 [1]: −2.0462 | Fold Regulation TIMP1 [1]: 1.6126 | Fold Regulation WISP1 [1]: −1.9722 | Fold Regulation ANGPT1 ([1]; CSA-13 at 5.0 μM): −2.0857 | Fold Regulation CCL7 ([1]; CSA-13 at 5.0 μM): 2.1961 | Fold Regulation CSF2 ([1]; CSA-13 at 5.0 μM): −1.8551 | Fold Regulation CXCL2 ([1]; CSA-13 at 5.0 μM): 14.3964 | Fold Regulation F13A1 ([1]; CSA-13 at 5.0 μM): 2.0963 | Fold Regulation FGF2 ([1]; CSA-13 at 5.0 μM): −1.6016 | Fold Regulation FGF10 ([1]; CSA-13 at 5.0 μM): 2.2811 | Fold Regulation HBEGF ([1]; CSA-13 at 5.0 μM): 3.5463 | Fold Regulation IL2 ([1]; CSA-13 at 5.0 μM): 2.1928 | Fold Regulation IL6 ([1]; CSA-13 at 5.0 μM): 4.0387 | Fold Regulation IL10 ([1]; CSA-13 at 5.0 μM): −2.0128 | Fold Regulation ITGA2 ([1]; CSA-13 at 5.0 μM): 16.0648 | Fold Regulation ITGB3 ([1]; CSA-13 at 5.0 μM): −1.5802 | Fold Regulation MMP1 ([1]; CSA-13 at 5.0 μM): 68.9688 | Fold Regulation PLAT ([1]; CSA-13 at 5.0 μM): −1.754 | Fold Regulation PLAU ([1]; CSA-13 at 5.0 μM): 1.6131 | Fold Regulation PLAUR ([1]; CSA-13 at 5.0 μM): 2.5454 | Fold Regulation PTGS2 ([1]; CSA-13 at 5.0 μM): 48.6907 | Fold Regulation VEGFA ([1]; CSA-13 at 5.0 μM): 4.6052
